Patent US7795290B2 (Genentech, Inc., priority 2004, dated 2010)

Target: T1, AKT1 (Homo sapiens, UniProt P31749)
T1 construct: purchased Upstate 14-276
Test: HTS ATP-utilizing enzyme assay, off-chip mobility-shift (Caliper HTS 250)
Format: biochemical
Settings: kinase named = inhibitory activity/selectivity; test compound 10 μM; active = greater than three-sigma from mean
Procedure, shortened: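 AKT1 activity was measured by off-chip mobility shift (Caliper HTS 250) as the ratio of peptide substrate to phosphorylated product. Test compound was at 10 μM, with 2.5 h incubation at 20–22° C. EDTA wells served as 100% control and DMSO wells as 0%. Hits were called at three-sigma limits.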

T1 sequence (P31749 whole entry): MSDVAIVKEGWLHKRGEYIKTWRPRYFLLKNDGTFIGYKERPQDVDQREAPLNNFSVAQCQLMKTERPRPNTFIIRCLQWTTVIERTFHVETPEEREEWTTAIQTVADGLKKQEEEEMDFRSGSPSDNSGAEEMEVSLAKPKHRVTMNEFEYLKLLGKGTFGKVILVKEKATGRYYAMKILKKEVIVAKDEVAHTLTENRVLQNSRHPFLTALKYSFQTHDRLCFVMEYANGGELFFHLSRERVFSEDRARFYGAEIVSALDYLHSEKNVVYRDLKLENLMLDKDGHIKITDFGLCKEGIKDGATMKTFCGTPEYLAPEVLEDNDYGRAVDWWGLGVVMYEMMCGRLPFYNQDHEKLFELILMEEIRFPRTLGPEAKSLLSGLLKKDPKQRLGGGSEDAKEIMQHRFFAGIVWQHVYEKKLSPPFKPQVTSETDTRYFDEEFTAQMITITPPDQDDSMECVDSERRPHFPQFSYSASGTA

Activity, AKT1:
N#CCCN(CC1CCCO1)C(=O)CCCN(C(=O)c1cccs1)c1nc(-c2cc3ccccc3o2)cs1 (stereo not drawn) [N-(4-(benzofuran-2-yl)thiazol-2-yl)-N-(4-((2-cyanoethyl)((tetrahydrofuran-2-yl)methyl)amino)-4-oxobutyl)thiophene-2-carboxamide], O=C(CCCN(C(=O)c1cccs1)c1nc(-c2cc3ccccc3o2)cs1)N(CCO)c1ccccc1 [N-(4-(benzofuran-2-yl)thiazol-2-yl)-N-(4-((2-hydroxyethyl)(phenyl)amino)-4-oxobutyl)thiophene-2-carboxamide], O=C(CCCN(C(=O)c1cccs1)c1nc(-c2cc3ccccc3o2)cs1)N(CCO)Cc1ccncc1 [N-(4-(benzofuran-2-yl)thiazol-2-yl)-N-(4-((2-hydroxyethyl)(pyridin-4-ylmethyl)amino)-4-oxobutyl)thiophene-2-carboxamide], Cc1cnc(CNC(=O)CCCN(C(=O)c2cccs2)c2nc(-c3cc4ccccc4o3)cs2)cn1 [N-(4-(benzofuran-2-yl)thiazol-2-yl)-N-(4-((5-methylpyrazin-2-yl)methylamino)-4-oxobutyl)thiophene-2-carboxamide], O=C(c1cccs1)N(CCCC(=O)N(CCCCO)C1CCCCC1)c1nc(-c2cc3ccccc3o2)cs1 [N-(4-(benzofuran-2-yl)thiazol-2-yl)-N-(4-(cyclohexyl(4-hydroxybutyl)amino)-4-oxobutyl)thiophene-2-carboxamide], O=C(CCCN(C(=O)c1cccs1)c1nc(-c2cc3ccccc3o2)cs1)N1Cc2ccccc2C1 [N-(4-(benzofuran-2-yl)thiazol-2-yl)-N-(4-(isoindolin-2-yl)-4-oxobutyl)thiophene-2-carboxamide], O=C(c1cccs1)N(CCCCN1CCOCC1)c1nc(-c2cc3ccccc3o2)cs1 [N-(4-(benzofuran-2-yl)thiazol-2-yl)-N-(4-morpholinobutyl)thiophene-2-carboxamide], O=C(c1cccs1)N(CCCC(=O)N1CCCC1c1cccnc1)c1nc(-c2cc3ccccc3o2)cs1 (stereo not drawn) [N-(4-(benzofuran-2-yl)thiazol-2-yl)-N-(4-oxo-4-(2-(pyridin-3-yl)pyrrolidin-1-yl)butyl)thiophene-2-carboxamide], O=C(CCCN(C(=O)c1cccs1)c1nc(-c2cc3ccccc3o2)cs1)NCCc1ccncc1 [N-(4-(benzofuran-2-yl)thiazol-2-yl)-N-(4-oxo-4-(2-(pyridin-4-yl)ethylamino)butyl)thiophene-2-carboxamide], O=C1CN(C(=O)CCCN(C(=O)c2cccs2)c2nc(-c3cc4ccccc4o3)cs2)CCN1 [N-(4-(benzofuran-2-yl)thiazol-2-yl)-N-(4-oxo-4-(3-oxopiperazin-1-yl)butyl)thiophene-2-carboxamide], O=C(CCCN(C(=O)c1cccs1)c1nc(-c2cc3ccccc3o2)cs1)N1CCCCC1 [N-(4-(benzofuran-2-yl)thiazol-2-yl)-N-(4-oxo-4-(piperidin-1-yl)butyl)thiophene-2-carboxamide], O=C(CCCN(C(=O)c1cccs1)c1nc(-c2cc3ccccc3o2)cs1)NCc1ccccn1 [N-(4-(benzofuran-2-yl)thiazol-2-yl)-N-(4-oxo-4-(pyridin-2-ylmethylamino)butyl)thiophene-2-carboxamide], O=C(CCCN(C(=O)c1cccs1)c1nc(-c2cc3ccccc3o2)cs1)NCc1cccnc1 [N-(4-(benzofuran-2-yl)thiazol-2-yl)-N-(4-oxo-4-(pyridin-3-ylmethylamino)butyl)thiophene-2-carboxamide], O=C(CCCN(C(=O)c1cccs1)c1nc(-c2cc3ccccc3o2)cs1)N1CCSC1 [N-(4-(benzofuran-2-yl)thiazol-2-yl)-N-(4-oxo-4-(thiazolidin-3-yl)butyl)thiophene-2-carboxamide], O=C(c1cccs1)N(CCCCCN1CCOCC1)c1nc(-c2cc3ccccc3o2)cs1 [N-(4-(benzofuran-2-yl)thiazol-2-yl)-N-(5-morpholinopentyl)thiophene-2-carboxamide], CCCN(C(=O)c1cccs1)c1nc(-c2cc3ccccc3o2)cs1 [N-(4-(benzofuran-2-yl)thiazol-2-yl)-N-propylthiophene-2-carboxamide], O=C(c1cccs1)N(CCCN1CCOCC1)c1nc(-c2coc3ccccc23)cs1 [N-(4-(benzofuran-3-yl)thiazol-2-yl)-N-(3-morpholinopropyl)thiophene-2-carboxamide], O=C(c1cccs1)N(CCCN1CCOCC1)c1nc(-c2ccc(-c3ccccc3)cc2)cs1 [N-(4-(biphenyl-4-yl)thiazol-2-yl)-N-(3-morpholinopropyl)thiophene-2-carboxamide], O=C(c1cccs1)N(CCCN1CCOCC1)c1nc(C2CCCCC2)cs1 [N-(4-cyclohexylthiazol-2-yl)-N-(3-morpholinopropyl)thiophene-2-carboxamide], O=C(c1cccs1)N(CCCN1CCOCC1)c1nc(C2CCCC2)cs1 [N-(4-cyclopentylthiazol-2-yl)-N-(3-morpholinopropyl)thiophene-2-carboxamide], O=C(c1ccco1)N(CCCCN1CCOCC1)c1nc(-c2cc(-c3ccccc3)no2)cs1 [N-(4-morpholinobutyl)-N-(4-(3-phenylisoxazol-5-yl)thiazol-2-yl)furan-2-carboxamide], O=C(c1cccs1)N(CCCCN1CCOCC1)c1nc(-c2cc(-c3ccccc3)no2)cs1 [N-(4-morpholinobutyl)-N-(4-(3-phenylisoxazol-5-yl)thiazol-2-yl)thiophene-2-carboxamide], O=C(c1cccs1)N(CCCN1CCCC1)c1nc(-c2ccccc2)cs1 [N-(4-phenylthiazol-2-yl)-N-(3-(pyrrolidin-1-yl)propyl)thiophene-2-carboxamide], Cc1nc(-c2cnccn2)sc1-c1csc(N(CCCN2CCOCC2)C(=O)c2cccs2)n1 [N-(4′-methyl-2′-(pyrazin-2-yl)-4,5′-bithiazol-2-yl)-N-(3-morpholinopropyl)thiophene-2-carboxamide], CCc1nnc(NC(=O)c2csc(N(CCCN3CCOCC3)C(=O)c3cccs3)n2)s1 [N-(5-ethyl-1,3,4-thiadiazol-2-yl)-2-(N-(3-morpholinopropyl)thiophene-2-carboxamido)thiazole-4-carboxamide], O=C(Nc1ccc2ncsc2c1)c1csc(N(CCCN2CCOCC2)C(=O)c2cccs2)n1 [N-(benzo[d]thiazol-6-yl)-2-(N-(3-morpholinopropyl)thiophene-2-carboxamido)thiazole-4-carboxamide], COc1ccc(-c2csc(N(Cc3ccco3)C(=O)c3cccs3)n2)cc1 [N-(furan-2-ylmethyl)-N-(4-(4-methoxyphenyl)thiazol-2-yl)thiophene-2-carboxamide], CCOC(=O)C1CCCCN1CCCN(C(=O)c1cccs1)c1nc(-c2cc3ccccc3o2)cs1 (stereo not drawn) [ethyl 1-(3-(N-(4-(benzofuran-2-yl)thiazol-2-yl)thiophene-2-carboxamido)propyl)piperidine-2-carboxylate], CCOC(=O)C1CCCN(CCCN(C(=O)c2cccs2)c2nc(-c3cc4ccccc4o3)cs2)C1 (stereo not drawn) [ethyl 1-(3-(N-(4-(benzofuran-2-yl)thiazol-2-yl)thiophene-2-carboxamido)propyl)piperidine-3-carboxylate], CCOC(=O)CC1CCCN(C(=O)CCCN(C(=O)c2cccs2)c2nc(-c3cc4ccccc4o3)cs2)C1 (stereo not drawn) [ethyl 2-(1-(4-(N-(4-(benzofuran-2-yl)thiazol-2-yl)thiophene-2-carboxamido)butanoyl)piperidin-3-yl)acetate], CCOC(=O)CC1CCN(C(=O)CCCN(C(=O)c2cccs2)c2nc(-c3cc4ccccc4o3)cs2)CC1 [ethyl 2-(1-(4-(N-(4-(benzofuran-2-yl)thiazol-2-yl)thiophene-2-carboxamido)butanoyl)piperidin-4-yl)acetate], CCOC(=O)Cc1csc(NC(=O)c2csc(N(CCCN3CCOCC3)C(=O)c3cccs3)n2)n1 [ethyl 2-(2-(2-(N-(3-morpholinopropyl)thiophene-2-carboxamido)thiazole-4-carboxamido)thiazol-4-yl)acetate], CCOC(=O)CN1CCN(CCCN(C(=O)c2cccs2)c2nc(-c3cc4ccccc4o3)cs2)CC1 [ethyl 2-(4-(3-(N-(4-(benzofuran-2-yl)thiazol-2-yl)thiophene-2-carboxamido)propyl)piperazin-1-yl)acetate], CCOC(=O)c1csc(N(CCCN2CCOCC2)C(=O)c2cccs2)n1 [ethyl 2-(N-(3-morpholinopropyl)thiophene-2-carboxamido)thiazole-4-carboxylate], CCOC(=O)CC(C)(C)c1csc(N(CCCN2CCOCC2)C(=O)c2cccs2)n1 [ethyl 3-methyl-3-(2-(N-(3-morpholinopropyl)thiophene-2-carboxamido)thiazol-4-yl)butanoate], CCOC(=O)N1CCN(CCCN(C(=O)c2cccs2)c2nc(-c3cc4ccccc4o3)cs2)CC1 [ethyl 4-(3-(N-(4-(benzofuran-2-yl)thiazol-2-yl)thiophene-2-carboxamido)propyl)piperazine-1-carboxylate]
